Data published in publication PMC11979685, “Synthesis of Derivatives of the Antibiotic Albicidin: The N‐Terminal Fragment as Key to Control Potency and Resistance Mediated by the Binding Protein AlbA” (Chemistry (Weinheim an Der Bergstrasse, Germany), 2025).
Converted amounts (≈) assume the structure as drawn. Like-named read-outs stand apart in the source and are kept apart here.

Tests used:
[1] = tested on: Salmonella typhimurium TA100; assay: MIC determination (broth microdilution); type: cell-based; conditions: Salmonella enterica, read-out: MIC S. typh.
Outline: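 MIC values were read visually as the lowest concentration inhibiting growth after 16 h at 30−37°C. Tests followed CLSI M07-A9, using cation-adjusted Mueller-Hinton broth II seeded at approximately 1x10^6 CFU mL-1 and final compound levels of 128 to 0.016 μg/mL added from DMSO.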

[2] = tested on: panel of gram-positive and gram-negative bacteria; assay: MIC against panel of bacteria; type: cell-based; conditions: read-out: MIC vs B. subtilis and M. luteus
Procedure: After completing the syntheses, the antibacterial activity of A‐variations 4–24 was assessed by determination of MIC values against a basic set of gram‐negative and gram‐positive bacteria (Table 1). The monocyclic derivatives 4–8 featuring a cyano‐, trifluoromethyl‐, methoxy‐ and fluoro‐ substituent in para‐position were very active against the gram–negative E. coli and S. typhimurium strains with MIC values in the same range as 3rd Gen albicidin 3 or ciprofloxacin which is the gold standard for gyrase inhibitors. […] These findings are in agreement with previous studies showing good activities for cyano, trifluoromethyl, methoxy and fluoro substituents in the para‐position of different aromatic rings in the building block A.[12, 13] The activity of the monocyclic derivatives 4–8 against the gram‐positive strains B. subtilis and M. luteus were similar but slightly less pronounced compared to the lead structure 3.
1.1 Determination of Minimal Inhibitory Concentrations (MIC)
Minimal inhibitory concentration (MIC) against selected bacterial strains values were determined according to the ninth edition of the Approved Standard M07-A9.[1] 20 μL of cryo stocks of bacterial strains were suspended in 20 mL LB medium (Lysogeny broth: 10 g/L peptone, 5 g/L yeast extract, 5 g/L NaCl). Following incubation overnight at 37°C, 200 rpm, the test inoculum was adjusted by 0.5 McFarland Standard in cation adjusted Mueller-Hinton broth (BBLTM Mueller-Hinton Broth II, Becton, Dickinson and Company, New Jersey, USA) to approximately 1x10^6 CFU mL-1. 95 μL of the bacterial inoculum were applied per well of a 96-well plate. Albicidin and albicidin derivatives 3−24 were dissolved in DMSO (100%) to an initial concentration of 2560 μg/mL and serially diluted in DMSO (100%). Initial solution and serial dilutions of Ciprofloxacin were prepared in 0.1 N HCL, respectively. […] Both microdilution trays and agar plates were incubated at 30−37°C for 16 h and subsequently analyzed for growth inhibition by naked eye. […]

AlbAL = assay: Transcription activation (TA) reporter assay, pAlbA-ilux luminescence; type: cell-based, Klebsiella oxytoca; conditions: luminescence normalized to 2nd Gen albicidin 2
Procedure: Finally, we investigated if synthetic variations of building block A are able to evade the effects of the resistance protein AlbA. Therefore, we carried out a qualitative growth inhibition assay with derivatives 4–24 in presence of an equimolar amount of purified AlbAS. After incubation of the cultures overnight, the growth of the bacteria was evaluated. The ability of AlbAS to sufficiently sequester an albicidin derivative from the supernatant allowed E. coli cells to accumulate in a visible cell pellet. Second, we performed a quantitative transcription‐activation reporter assay[22] to assess transcriptional regulation by AlbAL. The promoter sequence pAlbA was inserted into a reporter vector that encodes the ilux luminescence cassette.[22] The luminescence signals elicited by ligand binding of synthetic variations to AlbAL was compared and normalized to the signal induced by 2nd Gen albicidin 2 and are hereby referred to as relative transcription activation (TA^%). The combination of both assays prompted us to categorize the experimental outcomes (Figure 4) in four groups:
Figure 4 Characterization of AlbA resistance against derivatives 2, 4–24. GIA: Qualitative growth inhibition assay against E. coli DSM 1116. (−): Derivative unable to inhibit the growth of E. coli in presence of AlbAS. (+): Derivative inhibits growth of E. coli in presence of AlbAS. […] For details see SI Figure 9. Transcription activation (TA) assay: luminescence elicited by 2nd Gen albicidin 2 from the TA assay was normalized to 100 % and the luminescence signal of tested derivatives provided: relative luminescence [%]=luminescence [derivative]/luminescence [2]×100 %. Green bars indicate low relative luminescence (<40 %) and red bars indicate high relative luminescence (>50 %). Error bars show the standard deviations of triplicate measurements. TEXT PRINTED IN THE PICTURE: 2: E. coli inhibition +AlbA: − | 4: E. coli inhibition +AlbA: + | 9: E. coli inhibition +AlbA: + | 11: E. coli inhibition +AlbA: + | 12: E. coli inhibition +AlbA: + | 13: E. coli inhibition +AlbA: ~ | 14: E. coli inhibition +AlbA: − | 16: E. coli inhibition +AlbA: − | 17: E. coli inhibition +AlbA: − | 18: E. coli inhibition +AlbA: − | 19: E. coli inhibition +AlbA: − | 20: E. coli inhibition +AlbA: + | 21: E. coli inhibition +AlbA: − | 22: E. coli inhibition +AlbA: − | 23: E. coli inhibition +AlbA: − | 24: E. coli inhibition +AlbA: − […]
Transcription activation (TA) assay
Transcription reporter assays were conducted as described previously.[4] In short, E. coli BL21(DE3) were transformed with pET15b-AlbA, an expression construct without His-tag, and pCS-pAlbA-ilux, a reporter vector containing the pAlbA promoter and the improved bacterial luciferase reporter gene cassette ILUX.[7] […] Sixty data points were measured on a TECAN Infinite 200 microplate reader, after orbital shaking with for 10 min, with an amplitude of 3 mm, and a wait time of one minute between each measurement. At each time point, the absorbance at 600 nm ([…] bandwidth and 25 flashes) and the luminescence (500 ms integration time, no attenuation) were measured. Each assay was measured in triplicate at 30°C. The luminescence data was normalized to the OD before the background signal (wells with no albicidin added) was subtracted and the mean + standard deviation of each measurement point was calculated. […]

[3] = gram-positive bacteria B. subtilis and M. luteus

| SMILES | MIC [1] | MIC [2, 3] | MIC [2] | relative transcription activation (TA%), in words (AlbAL) |
| --- | --- | --- | --- | --- |
| COc1c(NC(=O)c2ccc(NC(=O)c3ccc(NC(=O)[C@H](Cc4c[nH]nn4)NC(=O)c4ccc(NC(=O)c5ccc(C#N)cc5)cc4)cn3)c(OC)c2O)ccc(C(=O)O)c1O [compound 4] | ≤ 0.016 µg/mL |  |  |  |
| COc1c(NC(=O)c2ccc(NC(=O)c3ccc(NC(=O)[C@H](Cc4c[nH]nn4)NC(=O)c4ccc(NC(=O)[C@@H](C)Oc5ccc(O)cc5)cc4)cn3)c(OC)c2O)ccc(C(=O)O)c1O [compound 9] | 0.063 µg/mL (≈ 0.0708 µM) |  |  |  |
| COc1c(NC(=O)c2ccc(NC(=O)c3ccc(NC(=O)[C@H](Cc4c[nH]nn4)NC(=O)c4ccc(NC(=O)c5ccc6ccccc6n5)cc4)cn3)c(OC)c2O)ccc(C(=O)O)c1O [compound 11] | ≤ 0.016 µg/mL | ≤ 0.016 µg/mL |  |  |
| COc1c(NC(=O)c2ccc(NC(=O)c3ccc(NC(=O)[C@H](Cc4c[nH]nn4)NC(=O)c4ccc(NC(=O)c5cc6ccccc6cn5)cc4)cn3)c(OC)c2O)ccc(C(=O)O)c1O [compound 12] | ≤ 0.016 µg/mL |  | 0.063 µg/mL (≈ 0.0715 µM) |  |
| COc1c(NC(=O)c2ccc(NC(=O)c3ccc(NC(=O)[C@H](Cc4c[nH]nn4)NC(=O)c4ccc(NC(=O)c5cnc6ccccc6c5)cc4)cn3)c(OC)c2O)ccc(C(=O)O)c1O [compound 13] |  | 0.125 µg/mL (≈ 0.142 µM) |  |  |
| COc1c(NC(=O)c2ccc(NC(=O)c3ccc(NC(=O)[C@H](Cc4c[nH]nn4)NC(=O)c4ccc(NC(=O)c5ccc6ncccc6c5)cc4)cn3)c(OC)c2O)ccc(C(=O)O)c1O [compound 14] | ≤ 0.016 µg/mL |  |  |  |
| CCn1cc(C(=O)Nc2ccc(C(=O)N[C@@H](Cc3c[nH]nn3)C(=O)Nc3ccc(C(=O)Nc4ccc(C(=O)Nc5ccc(C(=O)O)c(O)c5OC)c(O)c4OC)nc3)cc2)c(=O)c2ccc(C)nc21 [compound 18] | ≤ 0.016 µg/mL |  |  | low |
| CCn1cc(C(=O)Nc2ccc(C(=O)N[C@@H](Cc3c[nH]nn3)C(=O)Nc3ccc(C(=O)Nc4ccc(C(=O)Nc5ccc(C(=O)O)c(O)c5OC)c(O)c4OC)nc3)cc2)c(=O)c2cc3c(cc21)OCO3 [compound 19] |  |  |  | low |
| COc1c(NC(=O)c2ccc(NC(=O)c3ccc(NC(=O)[C@H](Cc4c[nH]nn4)NC(=O)c4ccc(NC(=O)c5cc(=O)c6cc(F)ccc6o5)cc4)cn3)c(OC)c2O)ccc(C(=O)O)c1O [compound 20] | ≤ 0.016 µg/mL |  |  |  |
| COc1c(NC(=O)c2ccc(NC(=O)c3ccc(NC(=O)[C@H](Cc4c[nH]nn4)NC(=O)c4ccc(NC(=O)c5cc6cc(O)ccc6[nH]5)cc4)cn3)c(OC)c2O)ccc(C(=O)O)c1O [compound 21] | 0.125 µg/mL (≈ 0.141 µM) |  |  | intermediate |
| COc1c(NC(=O)c2ccc(NC(=O)c3ccc(NC(=O)[C@H](Cc4c[nH]nn4)NC(=O)c4ccc(NC(=O)c5ccc6ncsc6c5)cc4)cn3)c(OC)c2O)ccc(C(=O)O)c1O [compound 22] | ≤ 0.016 µg/mL |  |  |  |
| COc1c(NC(=O)c2ccc(NC(=O)c3ccc(NC(=O)[C@H](Cc4c[nH]nn4)NC(=O)c4ccc(NC(=O)c5ccc6nc[nH]c6c5)cc4)cn3)c(OC)c2O)ccc(C(=O)O)c1O [compound 23] | 0.125 µg/mL (≈ 0.144 µM) |  |  | low |
| COc1c(NC(=O)c2ccc(NC(=O)c3ccc(NC(=O)[C@H](Cc4c[nH]nn4)NC(=O)c4ccc(NC(=O)c5ccc6nn[nH]c6c5)cc4)cn3)c(OC)c2O)ccc(C(=O)O)c1O [compound 24] | 0.031 µg/mL (≈ 0.0356 µM) |  |  | low |
